Measured values published in patent US20250163047A1, “HETEROCYCLIC COMPOUNDS, COMPOSITIONS THEREOF, AND METHODS OF TREATMENT THEREWITH” (BeiGene, Ltd., priority 2022, published 2025).
pIC50: −log10 of the molar value.

How the values were obtained:
Cbl (aa49-434) = molecular target: T1, Cbl (aa49-434) (Homo sapiens, UniProt P22681); test: Co-expressed Cbl with BirA biochemical assay (CBL/E2-Ub binding, HTRF); conditions: 0.6 nM Cbl co-expressed with BirA, read-out: co-express CBL/E2-Ub-binding assay IC50
T1 construct: Cbl (aa49-434, in-house); made in house
T1 sequence (P22681 49-434): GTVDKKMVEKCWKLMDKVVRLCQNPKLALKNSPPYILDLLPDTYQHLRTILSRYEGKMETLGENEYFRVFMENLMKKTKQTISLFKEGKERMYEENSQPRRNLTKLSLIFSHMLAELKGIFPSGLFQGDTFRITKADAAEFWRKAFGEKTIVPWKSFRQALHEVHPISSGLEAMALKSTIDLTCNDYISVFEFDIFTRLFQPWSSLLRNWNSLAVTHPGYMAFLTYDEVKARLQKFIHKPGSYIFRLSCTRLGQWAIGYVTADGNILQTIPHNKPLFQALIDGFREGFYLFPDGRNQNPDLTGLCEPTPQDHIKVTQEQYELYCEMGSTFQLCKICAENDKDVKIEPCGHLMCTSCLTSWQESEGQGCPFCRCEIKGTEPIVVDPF
Excerpt: (§1) The assay in the absence of a Cbl-b/Cbl inhibitor, where phosphorylation of Cbl-b/Cbl by the Src kinase allows UbcH5B-Ub to bind to Cbl-b/Cbl and brings the Bodipy-Fluorescein tagged ubiquitin in proximity to the streptavidin-terbium bound to the N-terminal biotinylated Avi-tagged Cbl-b/Cbl. […] The lack of a FRET signal indicates Cbl-b/Cbl is inhibited by the Cbl-b/Cbl inhibitor.

Cbl-b (aa36-427) = molecular target: T2, Cbl-b (aa36-427) (Homo sapiens, UniProt Q13191); test: Co-expressed Cbl-b with BirA biochemical assay (CBLB/E2-Ub binding, HTRF); conditions: 0.6 nM Cbl-b co-expressed with BirA, HTRF; read-out: co-express CBLB/E2-Ub-binding assay IC50
T2 construct: Cbl-b (aa36-427, in-house); made in house
Excerpt: as §1

T2 sequence (Q13191 36-427): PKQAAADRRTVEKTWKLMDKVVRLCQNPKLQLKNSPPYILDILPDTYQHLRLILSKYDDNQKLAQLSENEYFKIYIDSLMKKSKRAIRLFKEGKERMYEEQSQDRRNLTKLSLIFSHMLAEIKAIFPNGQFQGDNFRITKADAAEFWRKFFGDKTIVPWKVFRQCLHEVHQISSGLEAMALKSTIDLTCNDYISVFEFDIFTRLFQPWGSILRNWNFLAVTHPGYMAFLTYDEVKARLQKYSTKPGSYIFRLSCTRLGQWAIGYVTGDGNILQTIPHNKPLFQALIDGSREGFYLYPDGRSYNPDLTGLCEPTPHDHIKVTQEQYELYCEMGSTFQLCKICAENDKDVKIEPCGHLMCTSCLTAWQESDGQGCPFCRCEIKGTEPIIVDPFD

SMILES | pIC50 (Cbl (aa49-434)) | pIC50 (Cbl-b (aa36-427))
Cn1cnnc1[C@]1(c2cccc(NC(=O)c3cc(CNCC4CCCC4)cn4ccnc34)c2)C[C@H](C)C1 [Compound A42, 6-(((cyclopentylmethyl)amino)methyl)-N-(3-((1s, 3s)-3-methyl-1-(4-methyl-4H-1,2,4-triazol-3-yl)cyclobutyl)phenyl)imidazo[1,2-a]pyridine-8-carboxamide] | 8.12 | 8.74
Cn1ccc2nc(C(=O)Nc3cccc([C@]4(c5nncn5C)C[C@@H](CC#N)C4)c3)cc(CNC3(C)CCC3)c21 [Compound B56, N-(3-((1s, 3s)-3-(cyanomethyl)-1-(4-methyl-4H-1,2,4-triazol-3-yl)cyclobutyl)phenyl)-1-methyl-7-(((1-methylcyclobutyl)amino)methyl)-1H-pyrrolo[3,2-b]pyridine-5-carboxamide] | 7.49 | 8.85
Cn1cnnc1[C@]1(c2cccc(NC(=O)c3cc(CNC4(C)CCC4)c4c(n3)C(C)(C)CC4)c2)C[C@H](CC#N)C1 [Compound C40, N-(3-((1s, 3s)-3-(cyanomethyl)-1-(4-methyl-4H-1,2,4-triazol-3-yl)cyclobutyl)phenyl)-7,7-dimethyl-4-(((1-methylcyclobutyl)amino)methyl)-6,7-dihydro-5H-cyclopenta[b]pyridine-2-carboxamide] | 7.94 | 8.60
C[C@H]1CCCN(Cc2cc(C(=O)Nc3cccc([C@]4(c5nncn5C)C[C@@H](CC#N)C4)c3)n3nccc3c2)C1 [Compound A11, 5-{[(3S)-3-methylpiperidin-1-yl]methyl}-N-{3-[(1s, 3s)-3-(cyanomethyl)-1-(4-methyl-1,2,4-triazol-3-yl)cyclobutyl]phenyl}pyrazolo[1,5-a]pyridine-7-carboxamide] | 7.34 | 8.18
C[C@H]1CCCN(Cc2cc(C(=O)Nc3cccc([C@]4(c5nncn5C)C[C@@H](CC#N)C4)c3)nc3c2NCC3(C)C)C1 [Compound C13, 3,3-dimethyl-7-{[(3S)-3-methylpiperidin-1-yl]methyl}-N-{3-[(1s, 3s)-3-(cyanomethyl)-1-(4-methyl-1,2,4-triazol-3-yl)cyclobutyl]phenyl}-1H,2H-pyrrolo[3,2-b]pyridine-5-carboxamide] | 8.04 | 8.96
C[C@H]1CCCN(Cc2cc(C(=O)Nc3cccc(C4(Cc5nncn5C)COC4)c3)nc3cc[nH]c23)C1 [Compound B6, (S)—N-(3-(3-((4-methyl-4H-1,2,4-triazol-3-yl)methyl)oxetan-3-yl)phenyl)-7-((3-methylpiperidin-1-yl)methyl)-1H-pyrrolo[3,2-b]pyridine-5-carboxamide] | 8.16 | 8.40
C[C@H](NCc1cc(C(=O)Nc2cccc([C@]3(c4nncn4C)C[C@@H](C)C3)c2)nc2c1OCC2(C)C)C1CC1 [Compound C35, 7-((((S)-1-cyclopropylethyl)amino)methyl)-3,3-dimethyl-N-(3-((1s,3R)-3-methyl-1-(4-methyl-4H-1,2,4-triazol-3-yl)cyclobutyl)phenyl)-2,3-dihydrofuro[3,2-b]pyridine-5-carboxamide] | 7.61 | 8.42

Stronger by pIC50 (Cbl (aa49-434)), values ahead:

pIC50 (Cbl (aa49-434)) | pIC50 (Cbl-b (aa36-427)) | SMILES
8.64 | 8.92 | CC(C)CNCc1cc(C(=O)Nc2cncc([C@]3(c4nncn4C)C[C@@H](C)C3)c2)c2nccn2c1 [Compound A78, 6-((isobutylamino)methyl)-N-(5-((1s, 3s)-3-methyl-1-(4-methyl-4H-1,2,4-triazol-3-yl)cyclobutyl)pyridin-3-yl)imidazo[1,2-a]pyridine-8-carboxamide]
8.72 | 8.96 | C[C@@H]1CN(Cc2cc(C(=O)Nc3cccc([C@]4(c5nncn5C)C[C@@H](C)C4)c3)nc3c2CCC3(C)C)CC[C@@H]1F [Compound C55, 4-(((3R,4S)-4-fluoro-3-methylpiperidin-1-yl)methyl)-7,7-dimethyl-N-(3-((1s,3S)-3-methyl-1-(4-methyl-4H-1,2,4-triazol-3-yl)cyclobutyl)phenyl)-6,7-dihydro-5H-cyclopenta[b]pyridine-2-carboxamide]
8.19 | 9.22 | Cn1cnnc1[C@]1(c2cccc(NC(=O)c3cc(CNCC4(C)CCC4)cn4ccnc34)c2)C[C@H](CC#N)C1 [Compound A30, N-(3-((1s, 3s)-3-(cyanomethyl)-1-(4-methyl-4H-1,2,4-triazol-3-yl)cyclobutyl)phenyl)-6-((((1-methylcyclobutyl)methyl)amino)methyl)imidazo[1,2-a]pyridine-8-carboxamide]
8.22 | 8.57 | C[C@H]1CCCN(Cc2cc(C(=O)Nc3cccc([C@]4(c5nncn5C)C[C@@H](CC#N)C4)c3)nc3c2NCC32CC2)C1 [Compound C19, N-(3-((1s,3R)-3-(cyanomethyl)-1-(4-methyl-4H-1,2,4-triazol-3yl)cyclobutyl)phenyl)-7′-(((S)-3-methylpiperidin-1-yl)methyl)-1′,2′-dihydrospiro[cyclopropane-1,3′-pyrrolo[3,2-b]pyridine]-5′-carboxamide]
8.23 | 8.80 | Cc1cnc2c(C(=O)Nc3cccc([C@]4(c5nncn5C)C[C@@H](C)C4)c3)cc(CN3CC[C@H](F)[C@H](C)C3)cn12 [Compound A46, 6-(((3R,4S)-4-fluoro-3-methylpiperidin-1-yl)methyl)-3-methyl-N-(3-((1s,3S)-3-methyl-1-(4-methyl-4H-1,2,4-triazol-3-yl)cyclobutyl)phenyl)imidazo[1,2-a]pyridine-8-carboxamide]
8.59 | 9.15 | C[C@H](NCc1cc(C(=O)Nc2cccc([C@]3(c4nncn4C)C[C@@H](C)C3)c2)c2ncc(Cl)n2c1)C1CC1 [Compound A58, 3-chloro-6-((((S)-1-cyclopropylethyl)amino)methyl)-N-(3-((1s,3R)-3-methyl-1-(4-methyl-4H-1,2,4-triazol-3-yl)cyclobutyl)phenyl)imidazo[1,2-a]pyridine-8-carboxamide]
8.96 | 8.92 | C[C@H](NCc1cc(C(=O)Nc2cccc([C@]3(c4nncn4C)C[C@@H](CC#N)C3)c2)nc2cc[nH]c12)C1CCCC1 [Compound B25, N-(3-((1s,3R)-3-(cyanomethyl)-1-(4-methyl-4H-1,2,4-triazol-3-yl)cyclobutyl)phenyl)-7-((((S)-1-cyclopentylethyl)amino)methyl)-1H-pyrrolo[3,2-b]pyridine-5-carboxamide]
8.18 | 8.70 | Cn1cnnc1[C@]1(c2cccc(NC(=O)c3cc(CNCC4CCCCC4)c4c(n3)C(C)(C)CC4)c2)C[C@H](CC#N)C1 [Compound C14, N-(3-((1s, 3s)-3-(cyanomethyl)-1-(4-methyl-4H-1,2,4-triazol-3-yl)cyclobutyl)phenyl)-4-(((cyclohexylmethyl)amino)methyl)-7,7-dimethyl-6,7-dihydro-5H-cyclopenta[b]pyridine-2-carboxamide]
8.82 | 9.10 | C[C@H]1CCCN(Cc2cc(C(=O)Nc3cccc([C@]4(Cc5nncn5C)C[C@@H](C#N)C4)c3)nc3c2OCC3(C)C)C1 [Compound C11, 3,3-dimethyl-7-{[(3S)-3-methylpiperidin-1-yl]methyl}-N-{3-[(1r, 3r)-3-cyano-1-[(4-methyl-1,2,4-triazol-3-yl)methyl]cyclobutyl]phenyl}-2H-furo[3,2-b]pyridine-5-carboxamide]
